The source of these data is patent US7384983B2, “Inhibitor of monoamine uptake” (Eli Lilly and Company, priority 2001, dated 2008).

The target in one experiment is uptake of serotonin. Briefly: Microdialysis Assays of Monoamines: inhibition of serotonin uptake. The settings on record: tested essentially as described for microdialysis assays. As to the method: (§1) Microdialysis Assays of Monoamines
(§2) Sprague-Dawley rats (Harlan or Charles River) weighing 270-300 grams are surgically implanted with microdialysis probes under chloral hydrate/pentobarbital anesthesia (170 and 36 mg/kg i.p. in 30% propylene glycol, 14% ethanol) as described by Perry and Fuller. (Perry and Fuller, Effect of fluoxetine on serotonin and dopamine concentration in rat hypothalamus after administration of fluoxetine plus L-5-hydroxytryptophan, Life Sci., 50, 1683-90 (1992)). A David Kopf stereotaxic instrument is used to implant the probe unilaterally in the hypothalamus at coordinates rostral −1.5 mm, lateral −1.3 mm, and ventral −9.0 mm (Paxinos and Watson, 1986). After a 48-hour recovery period, rats are placed in a large plastic bowl with a mounted liquid swivel system (CMA/120 system for freely moving animals, Bioanalytical Systems, West Lafayette, Ind.). Filtered artificial cerebrospinal fluid (CSF) (150 mM NaCl, 3.0 MM KCl, 1.7 mM CaCl2, and 0.9 mM MgCl2) is perfused through the probe at a rate of […]. […]
(§3) The method used to measure monoamines is as described by Perry and Fuller (1992). […] The electrochemical detector (EG&G, Model 400) for the amine column is set at a potential of 400 mV and a sensitivity of 0.2 nA/V. Basal levels are measured for at least 90 minutes prior to drug administration. […]

The target in a further experiment is uptake of norepinephrine. As to the kind of experiment: Microdialysis Assays of Monoamines: inhibition of norepinephrine uptake. Format: in vivo, Sprague-Dawley rats. The settings on record: tested essentially as described for microdialysis assays. As to the method:
as §1, §2, §3

As for `CNCC[C@@H](Oc1ccc(O)cc1C)c1ccccc1` [R-(−)-N-methyl 3-((2-methyl-4-hydroxyphenyl)oxy)-3-phenyl-1-aminopropane], the Ki came out at 43 nM on uptake of serotonin and 3 nM on uptake of norepinephrine.

Usually Ki stands for the dissociation constant of the complex between target and ligand, obtained from inhibition or displacement. A low value points to a stronger hold on the target.
